The source made the active and inactive calls. No cut-off for these calls is given here.

The record followed here is ChEMBL document CHEMBL5543126, “Combinatorial Ubiquitination REal-time PROteolysis (CURE-PROs): A Modular Platform for Generating Reversible, Self-Assembling Bifunctional Targeted Degraders” (J Med Chem, 2024).

Assay [1] addresses T1, Protein cereblon/Bromodomain-containing protein 3 (Homo sapiens) (UniProt Q15059+Q96SW2). Put plainly: PROTAC activity at BRD3/CRBN in human HeLa cells assessed as induction of BRD3 degradation at 10 uM in presence of BRD3 ligand based (3-((4-((4S)-4-(2-(ethylamino)-2-oxoethyl)-8-methoxy-1-methyl4Hbenzo[f][1,2,4]triazolo[4,3-a][1,4]diazepin-6-yl)phenyl)thio)phenyl)boronic acid incubated for 24 hrs by Combinatorial Ubiquitination Real-time PROteolysis analysis. Type of assay: cell-based.

The target of assay [2] is T2, Protein cereblon/Bromodomain-containing protein 4 (Homo sapiens) (UniProt O60885+Q96SW2). Put plainly: PROTAC activity at BRD4/CRBN in human HeLa cells assessed as induction of BRD4 degradation at 10 uM incubated for 24 hrs in presence of JQ1 by Western blot analysis. Type of assay: cell-based. For orientation: In western blotting, separated proteins are transferred to a membrane and probed.

For assay [3], the target named is T2, Protein cereblon/Bromodomain-containing protein 4 (Homo sapiens). The assay is described as follows: PROTAC activity at BRD4/CRBN in human HeLa cells assessed as induction of BRD4 degradation at 10 uM incubated for 24 hrs in presence of BRD4 based ligand (3-((4S)-6-(4-chlorophenyl)-4-(2-(ethylamino)-2-oxoethyl)-1-methyl4H-benzo[f][1,2,4]triazolo[4,3-a][1,4]diazepin-8-yl)phenyl)boronic acid by Combinatorial Ubiquitination Real-time PROteolysis analysis. Type of assay: cell-based.

In assay [4] the test system is BRD2/CRBN (Homo sapiens). Put plainly: PROTAC activity at BRD2/CRBN in human HeLa cells assessed as induction of BRD2 degradation at 10 uM in presence of BRD3 ligand based (3-((4-((4S)-4-(2-(ethylamino)-2-oxoethyl)-8-methoxy-1-methyl4Hbenzo[f][1,2,4]triazolo[4,3-a][1,4]diazepin-6-yl)phenyl)thio)phenyl)boronic acid incubated for 24 hrs ….
In assay [5] the target is von Hippel-Lindau disease tumor suppressor/Bromodomain-containing protein 4 (Homo sapiens, UniProt O60885+P40337). Put plainly: PROTAC activity at BRD4/VHL in human MCF7 cells assessed as reduction in BRD4 level incubated for 24 hrs in presence of VHL based ligand (2S,4R)-1-((S)-2-(3,4-dihydroxybenzamido)-3,3-dimethylbutanoyl)-4-hydroxy-N-(4-(4-methylthiazol-5-yl)benzyl)pyrrolidine-2-carboxamide by Western blot based Combinatorial Ubiquitination Real-time PROteolysis analysis. Type of assay: cell-based.

Assay [6] concerns the target T3, BRD4/E3 ubiquitin-protein ligase Mdm2 (Homo sapiens) (UniProt Q00987+O60885). Put plainly: PROTAC activity at MDM2/BRD4 in human HCT-116 cells assessed as induction of BRD4 degradation incubated for 6 hrs in presence of MDM2 ligand based (4-((2-(4-((4S,5R)-4,5-bis(4-chlorophenyl)-2-(2-isopropoxy-4-methoxyphenyl)-4,5-dihydro-1H-imidazole-1-carbonyl)-2-oxopiperazin-1-yl)ethyl)carbamoyl)phenyl)boronic acid by Combinatorial Ubiquitination Real-time PROteolysis analysis. Type of assay: cell-based.

The target of assay [7] is T3, BRD4/E3 ubiquitin-protein ligase Mdm2 (Homo sapiens). The assay is described as follows: PROTAC activity at MDM2/BRD4 in human HCT-116 cells assessed as activation of caspase3/7 incubated for 6 hrs in presence of MDM2 ligand based (4-((2-(4-((4S,5R)-4,5-bis(4-chlorophenyl)-2-(2-isopropoxy-4-methoxyphenyl)-4,5-dihydro-1H-imidazole-1-carbonyl)-2-oxopiperazin-1-yl)ethyl)carbamoyl)phenyl)boronic acid by Combinatorial Ubiquitination Real-time PROteolysis analysis. Type of assay: cell-based.

In assay [8] the test system is NAMALVA. The assay is described as follows: Antiproliferative activity against human NAMALVA cells assessed as reduction in cell viability incubated for 72 hrs in presence of MDM2 ligand based (4-((2-(4-((4S,5R)-4,5-bis(4-chlorophenyl)-2-(2-isopropoxy-4-methoxyphenyl)-4,5-dihydro-1H-imidazole-1-carbonyl)-2-oxopiperazin-1-yl)ethyl)carbamoyl)phenyl)boronic acid by celltiter-glo assay. Type of assay: functional. (In general: ATP-based viability assays read luminescence as a measure of living cells.)

Assay [9] addresses T3, BRD4/E3 ubiquitin-protein ligase Mdm2 (Homo sapiens). The assay is described as follows: PROTAC activity at MDM2/BRD4 in human HCT-116 cells assessed as downregulation of SLC19A1 level at 10 uM incubated for 24 hrs in presence of MDM2 ligand based (4-((2-(4-((4S,5R)-4,5-bis(4-chlorophenyl)-2-(2-isopropoxy-4-methoxyphenyl)-4,5-dihydro-1H-imidazole-1-carbonyl)-2-oxopiperazin-1-yl)ethyl)carbamoyl)phenyl)boronic acid by qPCR based Combinatorial Ubiquitination Real-time PROteolysis analysis. Type of assay: cell-based.

Assay [10] deals with T2, Protein cereblon/Bromodomain-containing protein 4 (Homo sapiens). Put plainly: PROTAC activity at BRD4/CRBN in human HeLa cells assessed as induction of BRD4 degradation in presence of N-((2-(2,6-dioxopiperidin-3-yl)-1,3-dioxoisoindolin-4-yl)methyl)-2,3-dihydroxybenzamide by Combinatorial Ubiquitination Real-time PROteolysis analysis. It counts as cell-based. Conditions: dose 0.1-10 µM.

Assay [11] has as its target T1, Protein cereblon/Bromodomain-containing protein 3 (Homo sapiens). Put plainly: PROTAC activity at BRD3/CRBN in human HeLa cells assessed as induction of BRD3 degradation at 10 uM in presence of CRBN ligand based N-((2-(2,6-dioxopiperidin-3-yl)-1,3-dioxoisoindolin-4-yl)methyl)-2,3-dihydroxybenzamide incubated for 24 hrs by Combinatorial Ubiquitination Real-time PROteolysis analysis. It counts as cell-based.

The target is the same in assay [12]. The assay is described as follows: PROTAC activity at BRD2/CRBN in human HeLa cells assessed as induction of BRD2 degradation at 10 uM in presence of CRBN ligand based N-((2-(2,6-dioxopiperidin-3-yl)-1,3-dioxoisoindolin-4-yl)methyl)-2,3-dihydroxybenzamide incubated for 24 hrs by Combinatorial Ubiquitination Real-time PROteolysis analysis. It counts as cell-based.

Assay [13] deals with T3, BRD4/E3 ubiquitin-protein ligase Mdm2 (Homo sapiens). The assay is described as follows: PROTAC activity at MDM2/BRD4 in human HCT-116 cells assessed as induction of BRD4 degradation incubated for 6 hrs. Type of assay: cell-based.
Assay [14] has the same target. The assay is described as follows: PROTAC activity at MDM2/BRD4 in human HCT-116 cells assessed as induction of BRD4 degradation incubated for 6 hrs in presence of BRD4 ligand based (86)-N-(2-(2-(((4S)-6-(4-chlorophenyl)-4-(2-(ethylamino)-2-oxoethyl)-1-methyl-4H-benzo[f][1,2,4]triazolo[4,3-a][1,4]diazepin-8-yl)oxy)ethoxy)ethyl)-2,3-dihydroxybenzamide by Combinatorial Ubiquitination Real-time PROteolysis analysis. Type of assay: cell-based.

For assay [15] the target is unchanged. The assay is described as follows: PROTAC activity at MDM2/BRD4 in human HCT-116 cells assessed as activation of caspase 3/7 incubated for 6 hrs in presence of BRD4 ligand based (86)-N-(2-(2-(((4S)-6-(4-chlorophenyl)-4-(2-(ethylamino)-2-oxoethyl)-1-methyl-4H-benzo[f][1,2,4]triazolo[4,3-a][1,4]diazepin-8-yl)oxy)ethoxy)ethyl)-2,3-dihydroxybenzamide by Combinatorial Ubiquitination Real-time PROteolysis analysis. It counts as cell-based.

In assay [16] the test system is NAMALVA. The assay is described as follows: Antiproliferative activity against human NAMALVA cells assessed as reduction in cell viability incubated for 72 hrs by celltiter-glo assay. It counts as functional, cell-based.
For assay [17], the system named is NAMALVA. The assay is described as follows: Antiproliferative activity against human NAMALVA cells assessed as reduction in cell viability incubated for 72 hrs in presence of BRD4 ligand based (86)-N-(2-(2-(((4S)-6-(4-chlorophenyl)-4-(2-(ethylamino)-2-oxoethyl)-1-methyl-4H-benzo[f][1,2,4]triazolo[4,3-a][1,4]diazepin-8-yl)oxy)ethoxy)ethyl)-2,3-dihydroxybenzamide by celltiter-glo assay. It counts as functional.

Assay [18] deals with T3, BRD4/E3 ubiquitin-protein ligase Mdm2 (Homo sapiens). Put plainly: PROTAC activity at MDM2/BRD4 in human HCT-116 cells assessed as downregulation of SLC19A1 level at 10 uM incubated for 24 hrs by qPCR analysis. It counts as cell-based. In general terms: Quantitative PCR measures a nucleic acid by following its amplification.
Assay [19] has the same target. The assay is described as follows: PROTAC activity at MDM2/BRD4 in human HCT-116 cells assessed as downregulation of SLC19A1 level at 10 uM incubated for 24 hrs in presence of BRD4 ligand based (86)-N-(2-(2-(((4S)-6-(4-chlorophenyl)-4-(2-(ethylamino)-2-oxoethyl)-1-methyl-4H-benzo[f][1,2,4]triazolo[4,3-a][1,4]diazepin-8-yl)oxy)ethoxy)ethyl)-2,3-dihydroxybenzamid by qPCR based Combinatorial Ubiquitination Real-time PROteolysis analysis. It counts as cell-based.

Assay [20] addresses T2, Protein cereblon/Bromodomain-containing protein 4 (Homo sapiens). The assay is described as follows: PROTAC activity at BRD4/CRBN in human HeLa cells assessed as induction of BRD4 degradation at 10 uM incubated for 24 hrs in presence of CRBN based ligand N-((2-(2,6-dioxopiperidin-3-yl)-1,3-dioxoisoindolin-4-yl)methyl)-2,3-dihydroxybenzamide by Combinatorial Ubiquitination Real-time PROteolysis analysis. It counts as cell-based.

The target is the same in assay [21]. The assay is described as follows: PROTAC activity at BRD4/CRBN in human HeLa cells assessed as induction of BRD4 degradation at 0.1 to 10 uM in presence of N-((2-(2,6-dioxopiperidin-3-yl)-1,3-dioxoisoindolin-4-yl)methyl)-2,3-dihydroxybenzamide by Combinatorial Ubiquitination Real-time PROteolysis analysis. Conditions: dose 0.1-10 µM. It counts as cell-based.

T2 sequence (Q96SW2 whole entry, looked up, other chains not shown): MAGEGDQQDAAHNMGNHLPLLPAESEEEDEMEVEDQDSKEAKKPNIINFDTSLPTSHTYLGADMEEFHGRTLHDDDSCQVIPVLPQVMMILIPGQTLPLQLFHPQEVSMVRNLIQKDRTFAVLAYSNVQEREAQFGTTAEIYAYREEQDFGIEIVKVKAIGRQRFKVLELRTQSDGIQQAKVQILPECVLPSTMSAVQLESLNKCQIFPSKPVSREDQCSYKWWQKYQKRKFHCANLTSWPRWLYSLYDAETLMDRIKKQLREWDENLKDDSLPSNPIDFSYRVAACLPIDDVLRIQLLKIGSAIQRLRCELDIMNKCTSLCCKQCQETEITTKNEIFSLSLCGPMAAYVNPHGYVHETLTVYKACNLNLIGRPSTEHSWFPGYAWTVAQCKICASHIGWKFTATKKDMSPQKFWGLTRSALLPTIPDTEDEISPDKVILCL
T1 sequence (Q15059 2-726 limits assumed): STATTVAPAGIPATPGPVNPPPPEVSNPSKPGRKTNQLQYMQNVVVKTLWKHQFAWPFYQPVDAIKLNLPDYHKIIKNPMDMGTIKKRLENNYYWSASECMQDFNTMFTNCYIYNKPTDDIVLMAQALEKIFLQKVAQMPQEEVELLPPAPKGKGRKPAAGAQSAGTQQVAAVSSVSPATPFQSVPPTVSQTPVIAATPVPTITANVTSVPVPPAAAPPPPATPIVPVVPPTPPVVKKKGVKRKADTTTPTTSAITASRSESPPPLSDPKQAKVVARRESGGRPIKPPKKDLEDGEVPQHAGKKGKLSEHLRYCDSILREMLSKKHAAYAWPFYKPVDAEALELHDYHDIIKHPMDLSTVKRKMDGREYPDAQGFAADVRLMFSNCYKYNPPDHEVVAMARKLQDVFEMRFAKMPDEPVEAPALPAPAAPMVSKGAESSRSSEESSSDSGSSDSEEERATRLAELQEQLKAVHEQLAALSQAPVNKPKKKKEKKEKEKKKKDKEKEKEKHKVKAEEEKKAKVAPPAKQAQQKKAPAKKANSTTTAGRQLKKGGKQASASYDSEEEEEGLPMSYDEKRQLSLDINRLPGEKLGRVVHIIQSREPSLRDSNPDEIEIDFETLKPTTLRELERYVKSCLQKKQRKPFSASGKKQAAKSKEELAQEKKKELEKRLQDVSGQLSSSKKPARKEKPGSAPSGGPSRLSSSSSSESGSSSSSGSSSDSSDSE
T1 sequence (Q96SW2 whole entry partner): as the sequence (Q96SW2 whole entry, looked up, other chains not shown) above
T3 sequence (Q00987 whole entry, looked up, other chains not shown): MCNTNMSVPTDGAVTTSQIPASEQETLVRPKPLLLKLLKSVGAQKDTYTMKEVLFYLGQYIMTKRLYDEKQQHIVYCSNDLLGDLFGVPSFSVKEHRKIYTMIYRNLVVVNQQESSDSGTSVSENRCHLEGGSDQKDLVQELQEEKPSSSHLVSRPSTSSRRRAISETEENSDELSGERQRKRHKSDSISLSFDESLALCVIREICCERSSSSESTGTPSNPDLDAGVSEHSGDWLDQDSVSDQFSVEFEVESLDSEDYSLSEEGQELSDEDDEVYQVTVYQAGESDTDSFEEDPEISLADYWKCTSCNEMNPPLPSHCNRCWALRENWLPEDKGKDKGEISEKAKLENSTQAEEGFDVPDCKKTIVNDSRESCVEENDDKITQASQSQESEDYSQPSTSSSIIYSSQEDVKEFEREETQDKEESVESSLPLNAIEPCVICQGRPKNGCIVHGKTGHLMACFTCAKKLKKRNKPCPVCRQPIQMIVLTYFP
von Hippel-Lindau disease tumor suppressor/Bromodomain-containing protein 4, sequence (P40337 whole entry, looked up, other chains not shown): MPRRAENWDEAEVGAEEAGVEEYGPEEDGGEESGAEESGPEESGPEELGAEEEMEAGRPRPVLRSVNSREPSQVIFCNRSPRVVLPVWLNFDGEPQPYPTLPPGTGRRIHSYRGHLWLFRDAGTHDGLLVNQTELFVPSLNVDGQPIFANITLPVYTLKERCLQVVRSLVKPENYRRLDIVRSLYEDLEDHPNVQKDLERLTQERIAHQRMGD

For `O=C1CCC(N2C(=O)c3cccc(CNC(=O)c4cccc(O)c4O)c3C2=O)C(=O)N1` (configuration not stated), the outcome in assay [1], in assay [3] and in [4] was Active. Moreover, in assay [2], the outcome was inactive.
On to `Cc1ncsc1-c1ccc(CNC(=O)[C@@H]2C[C@@H](O)CN2C(=O)[C@@H](NC(=O)c2ccc(O)c(O)c2)C(C)(C)C)cc1`, for which the outcome in assay [5] was inactive.
Usually IC50 stands for the midpoint of a concentration-inhibition curve. With `COc1ccc(C2=N[C@H](c3ccc(Cl)cc3)[C@@H](c3ccc(Cl)cc3)N2C(=O)N2CCN(CCNC(=O)c3ccc(B(O)O)cc3)C(=O)C2)c(OC(C)C)c1`, the result in [6], in [7] and in [9] was Active. For the same compound, the IC50 in [8] is 724 nM.
As to `CCNC(=O)C[C@@H]1N=C(c2ccc(Sc3cccc(B(O)O)c3)cc2)c2cc(OC)ccc2-n2c(C)nnc21`, in assay [10], the Activity entry is “Dose-Dependent Effect”. Further, the result in assay [11] and in assay [12] was Active.
Consider `CCNC(=O)C[C@@H]1N=C(c2ccc(Cl)cc2)c2cc(OCCOCCNC(=O)c3cccc(O)c3O)ccc2-n2c(C)nnc21`, for which the outcome in assay [13] and in assay [18] was inactive. Also, the result in assay [14], in [15] and in assay [19] was Active. Further, the IC50 in assay [16] turned out to be 51300 nM; in assay [17], 724 nM.
On to `CCNC(=O)C[C@@H]1N=C(c2ccc(Cl)cc2)c2cc(-c3cccc(B(O)O)c3)ccc2-n2c(C)nnc21`, for which, in assay [2], the result was inactive. Besides, in assay [20], the result was Active.
In the case of `CCNC(=O)C[C@@H]1N=C(c2ccc(Sc3ccccc3)cc2)c2cc(OC)ccc2-n2c(C)nnc21`, the outcome in assay [21] was inactive.
